Common to all, as to type: in vivo
One series deals with Digitaria sanguinalis. As to the kind of experiment: Post-emergence test experiment, Digitaria sanguinalis. Conditions: for Activity level (growth inhibition rate), Digitaria sanguinalis: 1000 g a.i./ha, 3 weeks in greenhouse, fresh weight inhibition. The essentials:
(§1)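 Read-out is fresh weight inhibition rate, taken 3 weeks after spraying. Treatment was applied to plants at the 2-3 leaf stage, grown from seed under 0.5-2 cm soil in greenhouse pots. Spray solution contained acetone, tween-80 and methyl oleate emulsible concentrate at 1.5 liters per hectare.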

In series [1] the test system is Semen Euphorbiae Lathyridis. Briefly: Post-emergence test experiment, Semen Euphorbiae Lathyridis. Here is the method: (§2) The above described growth inhibition rate is fresh weight inhibition rate.
(§3) Post-emergence test experiment: Monocotyledonous and dicotyledonous weed seeds and main crop seeds (i. e. wheat, corn, rice, soybean, cotton, oilseed, millet and sorghum.) were put into a plastic pot loaded with soil. Then covered with 0.5-2 cm soil, the seeds were allowed to grow in good greenhouse environment. The test plants were treated at 2-3 leaf stage 2 weeks after sowing. The test compounds of the invention were dissolved with acetone respectively, then added with tween-80, and using 1.5 liters per hectare of an emulsible concentrate of methyl oleate as a synergist, and diluted by certain amount of water to certain concentration. The solution was sprayed to the plants with a sprayer. Then the plants were cultured for 3 weeks in the greenhouse, and the experiment result of weed controlling effect was listed in tables 4-5.

In series [2] the test system is Monocotyledonous and dicotyledonous weed seeds and main crop seeds. Briefly: Post-emergence test experiment, other weeds and crops (Table 4, 1000 g a.i./ha). Conditions: 3 weeks in greenhouse, fresh weight inhibition. The essentials: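 Weed and crop seeds (wheat, corn, rice, soybean, cotton, oilseed, millet, sorghum) sown in soil pots in a greenhouse and sprayed at 2-3 leaf stage, 2 weeks after sowing. Compound in acetone/tween-80 with methyl oleate concentrate (1.5 L/ha) as synergist. Effect recorded as fresh-weight growth inhibition rate.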

The test system of a further series is rice. As to the kind of experiment: Post-emergence test experiment, rice (crop selectivity). As to conditions: 3 weeks. Here is the method: as §2, §3
The test system of the next series is Echinochloa crusgalli. Briefly: Post-emergence test experiment, Echinochloa crusgalli. Conditions: for Activity level (growth inhibition rate), Echinochloa crusgalli: 1000 g a.i./ha, 3 weeks in greenhouse, fresh weight inhibition. In short, it runs like this: as §1
The mark [3] stands for this setting: 200 g a.i./ha, 3 weeks, weed resistant to cyhalofop-butyl.
Setting [4] is: 200 g a.i./ha, 3 weeks, weed resistant to ALS inhibitor and ACCe herbicides.

Structures are written as SMILES.

`CCCCOCCOC(=O)C(C)Oc1nc(F)c(Cl)c(N)c1Cl` (centres unmarked) [Compound 2-271]: the “Digitaria sanguinalis, activity level (growth inhibition rate)” value with Digitaria sanguinalis (setting [3]) is 5 (Level 5: the growth inhibition rate is greater than 85%). Moreover, the “Activity level (growth inhibition rate), Digitaria sanguinalis” value with Digitaria sanguinalis is 5 (Level 5: the growth inhibition rate is greater than 85%). Also, the “Semen Euphorbiae Lathyridis, activity level (growth inhibition rate)” value in series [1] (setting [3]) is given as 5 (Level 5: the growth inhibition rate is greater than 85%). In addition, in series [2], the “Activity level (growth inhibition rate), Abutilon theophrasti Medic.” value was 5 (Level 5: the growth inhibition rate is greater than 85%); the “Activity level (growth inhibition rate), Galium aparine” value is recorded as 5 (Level 5: the growth inhibition rate is greater than 85%); the “Activity level (growth inhibition rate), Monochoria Vaginalis” value was 5 (Level 5: the growth inhibition rate is greater than 85%). Moreover, the “rice, activity level (growth inhibition rate)” value (shortened to “rice … (growth inhibition rate)”) with rice (200 g a.i./ha) is given as 0 (Level 0: the growth inhibition rate is less than 5%). In addition, the “Echinochloa crusgalli, activity level (growth inhibition rate)” value in the series with Echinochloa crusgalli (setting [4]) is 5 (Level 5: the growth inhibition rate is greater than 85%). The “Activity level (growth inhibition rate), Echinochloa crusgalli” value with Echinochloa crusgalli is reported as 5 (Level 5: the growth inhibition rate is greater than 85%).

In the case of `CCCCC(C)OC(=O)[C@@H](C)Oc1nc(F)c(Cl)c(N)c1Cl` (some centres unmarked) [Compound 2-113], in the series on Digitaria sanguinalis (setting [3]), the “Digitaria sanguinalis, activity level (growth inhibition rate)” value is on record as 5 (Level 5: the growth inhibition rate is greater than 85%). In the series on Digitaria sanguinalis, the “Activity level (growth inhibition rate), Digitaria sanguinalis” value was 5 (Level 5: the growth inhibition rate is greater than 85%). For the same compound, the “Semen Euphorbiae Lathyridis, activity level (growth inhibition rate)” value in series [1] (setting [3]) was 5 (Level 5: the growth inhibition rate is greater than 85%). For the same compound, in series [2], the “Activity level (growth inhibition rate), Abutilon theophrasti Medic.” value is recorded as 5 (Level 5: the growth inhibition rate is greater than 85%); the “Activity level (growth inhibition rate), Galium aparine” value is reported as 5 (Level 5: the growth inhibition rate is greater than 85%); the “Activity level (growth inhibition rate), Monochoria Vaginalis” value was 5 (Level 5: the growth inhibition rate is greater than 85%). The “rice … (growth inhibition rate)” value in the series on rice (200 g a.i./ha) was 0 (Level 0: the growth inhibition rate is less than 5%). Besides, the “Echinochloa crusgalli, activity level (growth inhibition rate)” value in the series on Echinochloa crusgalli (setting [4]) is 5 (Level 5: the growth inhibition rate is greater than 85%). Further, the “Activity level (growth inhibition rate), Echinochloa crusgalli” value in the series with Echinochloa crusgalli was 5 (Level 5: the growth inhibition rate is greater than 85%).

For `CC(C)=NOCCOC(=O)C(C)Oc1nc(F)c(Cl)c(N)c1Cl` (centres unmarked) [Compound 2-287], the “Digitaria sanguinalis, activity level (growth inhibition rate)” value in the series with Digitaria sanguinalis (setting [3]) is given as 5 (Level 5: the growth inhibition rate is greater than 85%). Besides, in the series on Digitaria sanguinalis, the “Activity level (growth inhibition rate), Digitaria sanguinalis” value is 5 (Level 5: the growth inhibition rate is greater than 85%). Moreover, in series [1] (setting [3]), the “Semen Euphorbiae Lathyridis, activity level (growth inhibition rate)” value was 5 (Level 5: the growth inhibition rate is greater than 85%). Also, in series [2], the “Activity level (growth inhibition rate), Abutilon theophrasti Medic.” value is reported as 5 (Level 5: the growth inhibition rate is greater than 85%); the “Activity level (growth inhibition rate), Galium aparine” value is given as 5 (Level 5: the growth inhibition rate is greater than 85%); the “Activity level (growth inhibition rate), Monochoria Vaginalis” value is recorded as 5 (Level 5: the growth inhibition rate is greater than 85%). The “rice … (growth inhibition rate)” value in the series on rice (200 g a.i./ha) is recorded as 0 (Level 0: the growth inhibition rate is less than 5%). Further, the “Echinochloa crusgalli, activity level (growth inhibition rate)” value in the series with Echinochloa crusgalli (setting [4]) was 5 (Level 5: the growth inhibition rate is greater than 85%). Moreover, the “Activity level (growth inhibition rate), Echinochloa crusgalli” value in the series with Echinochloa crusgalli is given as 5 (Level 5: the growth inhibition rate is greater than 85%).

In the case of `CCCCCCCCCCCCOC(=O)[C@@H](C)Oc1nc(F)c(Cl)c(N)c1Cl` [Compound 2-235], the “Digitaria sanguinalis, activity level (growth inhibition rate)” value in the series with Digitaria sanguinalis (setting [3]) was 5 (Level 5: the growth inhibition rate is greater than 85%). Moreover, in the series with Digitaria sanguinalis, the “Activity level (growth inhibition rate), Digitaria sanguinalis” value is given as 5 (Level 5: the growth inhibition rate is greater than 85%). For the same compound, the “Semen Euphorbiae Lathyridis, activity level (growth inhibition rate)” value in series [1] (setting [3]) is 5 (Level 5: the growth inhibition rate is greater than 85%). In series [2], the “Activity level (growth inhibition rate), Abutilon theophrasti Medic.” value was 5 (Level 5: the growth inhibition rate is greater than 85%); the “Activity level (growth inhibition rate), Galium aparine” value is on record as 5 (Level 5: the growth inhibition rate is greater than 85%); the “Activity level (growth inhibition rate), Monochoria Vaginalis” value was 5 (Level 5: the growth inhibition rate is greater than 85%). In the series on rice (200 g a.i./ha), the “rice … (growth inhibition rate)” value is 0 (Level 0: the growth inhibition rate is less than 5%). Further, the “Echinochloa crusgalli, activity level (growth inhibition rate)” value with Echinochloa crusgalli (setting [4]) is on record as 5 (Level 5: the growth inhibition rate is greater than 85%). The “Activity level (growth inhibition rate), Echinochloa crusgalli” value in the series with Echinochloa crusgalli is on record as 5 (Level 5: the growth inhibition rate is greater than 85%).

Regarding `CCCCCCCCCCCOC(=O)[C@@H](C)Oc1nc(F)c(Cl)c(N)c1Cl` [Compound 2-215], in the series with Digitaria sanguinalis (setting [3]), the “Digitaria sanguinalis, activity level (growth inhibition rate)” value is 5 (Level 5: the growth inhibition rate is greater than 85%). The “Activity level (growth inhibition rate), Digitaria sanguinalis” value in the series with Digitaria sanguinalis was 5 (Level 5: the growth inhibition rate is greater than 85%). The “Semen Euphorbiae Lathyridis, activity level (growth inhibition rate)” value in series [1] (setting [3]) is 5 (Level 5: the growth inhibition rate is greater than 85%). Besides, in series [2], the “Activity level (growth inhibition rate), Abutilon theophrasti Medic.” value is listed as 5 (Level 5: the growth inhibition rate is greater than 85%); the “Activity level (growth inhibition rate), Galium aparine” value is reported as 5 (Level 5: the growth inhibition rate is greater than 85%); the “Activity level (growth inhibition rate), Monochoria Vaginalis” value was 5 (Level 5: the growth inhibition rate is greater than 85%). For the same compound, in the series with rice (200 g a.i./ha), the “rice … (growth inhibition rate)” value was 0 (Level 0: the growth inhibition rate is less than 5%). Moreover, the “Echinochloa crusgalli, activity level (growth inhibition rate)” value in the series on Echinochloa crusgalli (setting [4]) is 4 (Level 4: the growth inhibition rate is equal to or greater than 60% and less than 85%). Moreover, the “Activity level (growth inhibition rate), Echinochloa crusgalli” value in the series on Echinochloa crusgalli is given as 5 (Level 5: the growth inhibition rate is greater than 85%).

For the compound `CCCCCSC(=O)[C@@H](C)Oc1nc(F)c(Cl)c(N)c1Cl` [Compound 2-86], the “Digitaria sanguinalis, activity level (growth inhibition rate)” value in the series on Digitaria sanguinalis (setting [3]) is reported as 5 (Level 5: the growth inhibition rate is greater than 85%). In addition, the “Activity level (growth inhibition rate), Digitaria sanguinalis” value in the series on Digitaria sanguinalis is recorded as 5 (Level 5: the growth inhibition rate is greater than 85%). Besides, the “Semen Euphorbiae Lathyridis, activity level (growth inhibition rate)” value in series [1] (setting [3]) was 5 (Level 5: the growth inhibition rate is greater than 85%). In series [2], the “Activity level (growth inhibition rate), Abutilon theophrasti Medic.” value is listed as 5 (Level 5: the growth inhibition rate is greater than 85%); the “Activity level (growth inhibition rate), Galium aparine” value was 5 (Level 5: the growth inhibition rate is greater than 85%); the “Activity level (growth inhibition rate), Monochoria Vaginalis” value was 5 (Level 5: the growth inhibition rate is greater than 85%). Besides, the “rice … (growth inhibition rate)” value in the series on rice (200 g a.i./ha) was 0 (Level 0: the growth inhibition rate is less than 5%). In addition, in the series with Echinochloa crusgalli (setting [4]), the “Echinochloa crusgalli, activity level (growth inhibition rate)” value was 5 (Level 5: the growth inhibition rate is greater than 85%). The “Activity level (growth inhibition rate), Echinochloa crusgalli” value in the series on Echinochloa crusgalli was 5 (Level 5: the growth inhibition rate is greater than 85%).

In the case of `CCCCCCCOC(=O)[C@@H](C)Oc1nc(F)c(Cl)c(N)c1Cl` [Compound 2-121], the “Digitaria sanguinalis, activity level (growth inhibition rate)” value with Digitaria sanguinalis (setting [3]) is recorded as 5 (Level 5: the growth inhibition rate is greater than 85%). Also, the “Activity level (growth inhibition rate), Digitaria sanguinalis” value in the series on Digitaria sanguinalis was 5 (Level 5: the growth inhibition rate is greater than 85%). In series [1] (setting [3]), the “Semen Euphorbiae Lathyridis, activity level (growth inhibition rate)” value is 5 (Level 5: the growth inhibition rate is greater than 85%). In addition, in series [2], the “Activity level (growth inhibition rate), Abutilon theophrasti Medic.” value is recorded as 5 (Level 5: the growth inhibition rate is greater than 85%); the “Activity level (growth inhibition rate), Galium aparine” value was 5 (Level 5: the growth inhibition rate is greater than 85%); the “Activity level (growth inhibition rate), Monochoria Vaginalis” value is on record as 5 (Level 5: the growth inhibition rate is greater than 85%). In addition, in the series with rice (200 g a.i./ha), the “rice … (growth inhibition rate)” value was 0 (Level 0: the growth inhibition rate is less than 5%). Also, in the series on Echinochloa crusgalli (setting [4]), the “Echinochloa crusgalli, activity level (growth inhibition rate)” value was 5 (Level 5: the growth inhibition rate is greater than 85%). In addition, the “Activity level (growth inhibition rate), Echinochloa crusgalli” value in the series with Echinochloa crusgalli is 5 (Level 5: the growth inhibition rate is greater than 85%).

As for `CCOC(=O)C(C)Oc1nc(F)c(Cl)c(N)c1Cl` (centres unmarked) [reference compound], the inhibition at 200 g/ha fell in the range of 20 to 40% in the series with Digitaria sanguinalis (Digitaria sanguinalis, 504 h, 200 g a.i./ha, 3 weeks, weed resistant to cyhalofop-butyl, read-out: Digitaria sanguinalis, activity level (growth inhibition rate)); 40 to 60% in series [1] (504 h, 200 g a.i./ha, 3 weeks, weed resistant to cyhalofop-butyl, read-out: Semen Euphorbiae Lathyridis, activity level (growth inhibition rate)); 20 to 40% with Echinochloa crusgalli (Echinochloa crus-galli, 504 h, 200 g a.i./ha, 3 weeks, weed resistant to ALS inhibitor and ACCe herbicides, read-out: Echinochloa crusgalli, activity level (growth inhibition rate)). In addition, the “rice … (growth inhibition rate)” value with rice (200 g a.i./ha) was 1 (Level 1: the growth inhibition rate is equal to or greater than 5% and less than 20%).

For `CCCCOC(=O)[C@@H](C)Oc1ccc(Oc2ccc(C#N)cc2F)cc1` [cyhalofop-butyl, reference compound], the inhibition at 300 g/ha is 5 to 20% with Digitaria sanguinalis (Digitaria sanguinalis, 504 h, read-out: Digitaria sanguinalis, activity level (growth inhibition rate)); 5 to 20% in series [1] (504 h, read-out: Semen Euphorbiae Lathyridis, activity level (growth inhibition rate)); 5 to 20% with Echinochloa crusgalli (Echinochloa crus-galli, 504 h, read-out: Echinochloa crusgalli, activity level (growth inhibition rate)). The “rice … (growth inhibition rate)” value with rice (300 g a.i./ha) is given as 0 (Level 0: the growth inhibition rate is less than 5%).

The record behind these values is patent publication US12304890B2, “R-type pyridyloxycarboxylic acid, salt and ester derivative thereof, and preparation method therefor, and herbicidal composition and application thereof” (Qingdao Kingagroot Chemical Compound Co., Ltd., priority 2018, dated 2025).
